Test results as given in US8278345B2, “Inhibitors of glutaminyl cyclase” (Probiodrug AG, priority 2006, dated 2012).
pIC50: −log10 of the molar value.

The molecules below were run against hQC (Homo sapiens, UniProt Q16769) (assay: Inhibitor assay for glutaminyl cyclase activity (fluorometric, H-Gln-βNA / H-Gln-AMC)). Conditions: compound from preparative synthesis, purified; read-out: IC50 hQC.
Format: biochemical
Outline: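 Coupled fluorometric assay at 30 °C with pyroglutamyl aminopeptidase, in Tris/HCl pH 8.0 with EDTA, substrate H-Gln-βNA (0.2 mM; ex/em 320/410 nm) or H-Gln-AMC (ex/em 380/460 nm), initiated by QC. Screening: 4 mM inhibitor, substrate at 1 KM; Ki from progress curves fitted to competitive inhibition.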

hQC, sequence (Q16769 29-361): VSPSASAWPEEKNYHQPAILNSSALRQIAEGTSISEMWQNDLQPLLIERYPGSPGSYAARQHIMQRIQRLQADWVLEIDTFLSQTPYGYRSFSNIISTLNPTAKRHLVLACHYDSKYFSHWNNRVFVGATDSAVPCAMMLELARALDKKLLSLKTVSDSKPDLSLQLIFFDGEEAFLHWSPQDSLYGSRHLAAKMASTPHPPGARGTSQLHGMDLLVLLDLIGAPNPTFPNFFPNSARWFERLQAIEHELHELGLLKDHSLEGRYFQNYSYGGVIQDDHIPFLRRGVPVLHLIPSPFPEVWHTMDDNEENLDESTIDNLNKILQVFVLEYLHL

pIC50	SMILES
8.35	CC(C)CC(=O)C1=C(O)C(=O)N(c2ccc3[nH]cnc3c2)C1c1ccc2cccc(O)c2n1 (stereo not drawn) [Compound 327, 1-(1H-Benzoimidazol-5-yl)-3-hydroxy-5-(8-hydroxy-quinolin-2-yl)-4-(3-methyl-butyryl)-1,5-dihydro-pyrrol-2-one]

Same assay, conditions: read-out: IC50

pIC50	SMILES
5.28	CSCC1=C(O)C(=O)N(c2ccc3[nH]cnc3c2)C1c1cccc(F)c1 (stereo not drawn) [Compound 299, 1-(1H-Benzoimidazol-5-yl)-5-(3-fluoro-phenyl)-3-hydroxy-4-methylsulfanylmethyl-1,5-dihydro-pyrrol-2-one]
8.40	CC(C)C1=C(O)C(=O)N(c2ccc3[nH]cnc3c2)C1C1COC(C)(C)O1 (stereo not drawn) [Compound 300, 1-(1H-Benzoimidazol-5-yl)-5-(2,2-dimethyl-[1,3]dioxolan-4-yl)-3-hydroxy-4-isopropyl-1,5-dihydro-pyrrol-2-one]
6.89	CC(=O)C1=C(O)C(=O)N(c2ccc3[nH]cnc3c2)C1c1cccc(Cl)c1 (stereo not drawn) [Compound 301, 4-Acetyl-1-(1H-benzoimidazol-5-yl)-5-(3-chloro-phenyl)-3-hydroxy-1,5-dihydro-pyrrol-2-one]
5.53	CCC1=C(O)C(=O)N(c2ccc3[nH]cnc3c2)C1c1ccnc2ccccc12 (stereo not drawn) [Compound 302, 1-(1H-Benzoimidazol-5-yl)-4-ethyl-3-hydroxy-5-quinolin-4-yl-1,5-dihydro-pyrrol-2-one]
6.40	O=C(C1=C(O)C(=O)N(c2ccc3[nH]cnc3c2)C1c1ccc(CO)o1)C1CCCCC1 (stereo not drawn) [Compound 303, 1-(1H-Benzoimidazol-5-yl)-4-cyclohexanecarbonyl-3-hydroxy-5-(5-hydroxymethyl-furan-2-yl)-1,5-dihydro-pyrrol-2-one]
6.66	O=C1C(O)=C(c2cccc(O)c2)C(c2ccc3cccc(O)c3n2)N1c1ccc2[nH]cnc2c1 (stereo not drawn) [Compound 304, 1-(1H-Benzoimidazol-5-yl)-3-hydroxy-4-(3-hydroxy-phenyl)-5-(8-hydroxy-quinolin-2-yl)-1,5-dihydro-pyrrol-2-one]
5.76	O=C1C(O)=C(c2ccccc2)C(c2ccc(Cl)c(C(F)(F)F)c2)N1c1ccc2[nH]cnc2c1 (stereo not drawn) [Compound 305, 1-(1H-Benzoimidazol-5-yl)-5-(4-chloro-3-trifluoromethyl-phenyl)-3-hydroxy-4-phenyl-1,5-dihydro-pyrrol-2-one]
6.40	Cc1cccc(C2C(C(=O)c3ccsc3)=C(O)C(=O)N2c2ccc3[nH]cnc3c2)n1 (stereo not drawn) [Compound 306, 1-(1H-Benzoimidazol-5-yl)-3-hydroxy-5-(6-methyl-pyridin-2-yl)-4-(thiophene-3-carbonyl)-1,5-dihydro-pyrrol-2-one]
5.55	Cc1cc(C2C(c3cccc(O)c3)=C(O)C(=O)N2c2ccc3[nH]cnc3c2)oc1C (stereo not drawn) [Compound 307, 1-(1H-Benzoimidazol-5-yl)-5-(4,5-dimethyl-furan-2-yl)-3-hydroxy-4-(3-hydroxy-phenyl)-1,5-dihydro-pyrrol-2-one]
6.40	O=C(O)c1ccc(C2C(C(=O)C3CC3)=C(O)C(=O)N2c2ccc3[nH]cnc3c2)o1 (stereo not drawn) [Compound 308, 5-[1-(1H-Benzoimidazol-5-yl)-3-cyclopropanecarbonyl-4-hydroxy-5-oxo-2,5-dihydro-1H-pyrrol-2-yl]-furan-2-carboxylic acid]
5.16	O=C1C(O)=C(c2ccccc2)C(c2ccc(N3CCCC3)cc2)N1c1ccc2[nH]cnc2c1 (stereo not drawn) [Compound 309, 1-(1H-Benzoimidazol-5-yl)-3-hydroxy-4-phenyl-5-(4-pyrrolidin-1-yl-phenyl)-1,5-dihydro-pyrrol-2-one]
5.99	CC(C)(C)C(=O)C1=C(O)C(=O)N(c2ccc3[nH]cnc3c2)C1c1ccc2cccc(O)c2n1 (stereo not drawn) [Compound 310, 1-(1H-Benzoimidazol-5-yl)-4-(2,2-dimethyl-propionyl)-3-hydroxy-5-(8-hydroxy-quinolin-2-yl)-1,5-dihydro-pyrrol-2-one]
5.34	O=C(O)CC1=C(O)C(=O)N(c2ccc3[nH]cnc3c2)C1c1cccc(F)c1 (stereo not drawn) [Compound 311, [1-(1H-Benzoimidazol-5-yl)-2-(3-fluoro-phenyl)-4-hydroxy-5-oxo-2,5-dihydro-1H-pyrrol-3-yl]-acetic acid]
5.74	CC(=O)C1=C(O)C(=O)N(c2ccc3[nH]cnc3c2)C1C1=CCCCC1 (stereo not drawn) [Compound 312, 4-Acetyl-1-(1H-benzoimidazol-5-yl)-5-cyclohex-1-enyl-3-hydroxy-1,5-dihydro-pyrrol-2-one]
5.29	CCCC(=O)C1=C(O)C(=O)N(c2ccc3[nH]cnc3c2)C1CCC (stereo not drawn) [Compound 313, 1-(1H-Benzoimidazol-5-yl)-4-butyryl-3-hydroxy-5-propyl-1,5-dihydro-pyrrol-2-one]
5.32	CC(=O)C1=C(O)C(=O)N(c2ccc3[nH]cnc3c2)C1C1CCOC1 (stereo not drawn) [Compound 314, 4-Acetyl-1-(1H-benzoimidazol-5-yl)-3-hydroxy-5-(tetrahydro-furan-3-yl)-1,5-dihydro-pyrrol-2-one]
5.83	CCC1=C(O)C(=O)N(c2ccc3[nH]cnc3c2)C1c1cc(F)cc(F)c1F (stereo not drawn) [Compound 315, 1-(1H-Benzoimidazol-5-yl)-4-ethyl-3-hydroxy-5-(2,3,5-trifluoro-phenyl)-1,5-dihydro-pyrrol-2-one]
6.24	Cc1cccc(C2C(C(=O)C3CC3)=C(O)C(=O)N2c2ccc3[nH]cnc3c2)n1 (stereo not drawn) [Compound 316, 1-(1H-Benzoimidazol-5-yl)-4-cyclopropanecarbonyl-3-hydroxy-5-(6-methyl-pyridin-2-yl)-1,5-dihydro-pyrrol-2-one]

pIC50	SMILES
5.11	O=C(C1=C(O)C(=O)N(c2ccc3[nH]cnc3c2)C1C1CCOC1)C1CC1 (stereo not drawn) [Compound 317, 1-(1H-Benzoimidazol-5-yl)-4-cyclopropanecarbonyl-3-hydroxy-5-(tetrahydro-furan-3-yl)-1,5-dihydro-pyrrol-2-one]
5.76	CC(=O)C1=C(O)C(=O)N(c2ccc3[nH]cnc3c2)C1c1ccnc2ccccc12 (stereo not drawn) [Compound 318, 4-Acetyl-1-(1H-benzoimidazol-5-yl)-3-hydroxy-5-quinolin-4-yl-1,5-dihydro-pyrrol-2-one]
5.55	CC1=C(O)C(=O)N(c2ccc3[nH]cnc3c2)C1c1ccc2cccc(O)c2n1 (stereo not drawn) [Compound 319, 1-(1H-Benzoimidazol-5-yl)-3-hydroxy-5-(8-hydroxy-quinolin-2-yl)-4-methyl-1,5-dihydro-pyrrol-2-one]
5.02	Cc1ccc2c(C3C(c4c[nH]c5ccccc45)=C(O)C(=O)N3c3ccc4[nH]cnc4c3)c[nH]c2c1 (stereo not drawn) [Compound 320, 1-(1H-Benzoimidazol-5-yl)-3-hydroxy-4-(1H-indol-3-yl)-5-(6-methyl-1H-indol-3-yl)-1,5-dihydro-pyrrol-2-one]
6.12	Cc1ccc(C2C(C(=O)c3cccs3)=C(O)C(=O)N2c2ccc3[nH]cnc3c2)o1 (stereo not drawn) [Compound 321, 1-(1H-Benzoimidazol-5-yl)-3-hydroxy-5-(5-methyl-furan-2-yl)-4-(thiophene-2-carbonyl)-1,5-dihydro-pyrrol-2-one]
5.24	Cn1cc(C2C(CC(=O)O)=C(O)C(=O)N2c2ccc3[nH]cnc3c2)c2ccccc21 (stereo not drawn) [Compound 322, [1-(1H-Benzoimidazol-5-yl)-4-hydroxy-2-(1-methyl-1H-indol-3-yl)-5-oxo-2,5-dihydro-1H-pyrrol-3-yl]-acetic acid]
5.78	CCCCCC1=C(O)C(=O)N(c2ccc3[nH]cnc3c2)C1c1cccc(F)c1 (stereo not drawn) [Compound 323, 1-(1H-Benzoimidazol-5-yl)-5-(3-fluoro-phenyl)-3-hydroxy-4-pentyl-1,5-dihydro-pyrrol-2-one]
5.18	CCCC(=O)C1=C(O)C(=O)N(c2ccc3[nH]cnc3c2)C1CCC(=O)O (stereo not drawn) [Compound 324, 3-[1-(1H-Benzoimidazol-5-yl)-3-butyryl-4-hydroxy-5-oxo-2,5-dihydro-1H-pyrrol-2-yl]-propionic acid]
6.03	CCCCCC1=C(O)C(=O)N(c2ccc3[nH]cnc3c2)C1c1ccccc1F (stereo not drawn) [Compound 325, 1-(1H-Benzoimidazol-5-yl)-5-(2-fluoro-phenyl)-3-hydroxy-4-pentyl-1,5-dihydro-pyrrol-2-one]
5.48	CC1=C(O)C(=O)N(c2ccc3[nH]cnc3c2)C1c1nccs1 (stereo not drawn) [Compound 326, 1-(1H-Benzoimidazol-5-yl)-3-hydroxy-4-methyl-5-thiazol-2-yl-1,5-dihydro-pyrrol-2-one]
8.40	CC(C)CC(=O)C1=C(O)C(=O)N(c2ccc3[nH]cnc3c2)C1c1ccc2cccc(O)c2n1 (stereo not drawn) [Compound 327, 1-(1H-Benzoimidazol-5-yl)-3-hydroxy-5-(8-hydroxy-quinolin-2-yl)-4-(3-methyl-butyryl)-1,5-dihydro-pyrrol-2-one]
6.51	CC1=C(O)C(=O)N(c2ccc3[nH]cnc3c2)C1c1coc2ccc(C)cc2c1=O (stereo not drawn) [Compound 328, 1-(1H-Benzoimidazol-5-yl)-3-hydroxy-4-methyl-5-(6-methyl-4-oxo-4H-chromen-3-yl)-1,5-dihydro-pyrrol-2-one]
5.20	Cn1cc(C2C(c3c[nH]c4ccccc34)=C(O)C(=O)N2c2ccc3[nH]cnc3c2)c2ccccc21 (stereo not drawn) [Compound 329, 1-(1H-Benzoimidazol-5-yl)-3-hydroxy-4-(1H-indol-3-yl)-5-(1-methyl-1H-indol-3-yl)-1,5-dihydro-pyrrol-2-one]
5.68	CC(=O)C1=C(O)C(=O)N(c2ccc3[nH]cnc3c2)C1c1cccc(C)n1 (stereo not drawn) [Compound 330, 4-Acetyl-1-(1H-benzoimidazol-5-yl)-3-hydroxy-5-(6-methyl-pyridin-2-yl)-1,5-dihydro-pyrrol-2-one]
5.86	Cc1ccc2occ(C3C(C(C)C)=C(O)C(=O)N3c3ccc4[nH]cnc4c3)c(=O)c2c1 (stereo not drawn) [Compound 331, 1-(1H-Benzoimidazol-5-yl)-3-hydroxy-4-isopropyl-5-(6-methyl-4-oxo-4H-chromen-3-yl)-1,5-dihydro-pyrrol-2-one]
5.11	Cc1ccc(O)c(C2C(c3c[nH]c4ccccc34)=C(O)C(=O)N2c2ccc3[nH]cnc3c2)c1 (stereo not drawn) [Compound 332, 1-(1H-Benzoimidazol-5-yl)-3-hydroxy-5-(2-hydroxy-5-methyl-phenyl)-4-(1H-indol-3-yl)-1,5-dihydro-pyrrol-2-one]
6.12	CC(=O)C1=C(O)C(=O)N(c2ccc3[nH]cnc3c2)C1c1ccc(O)c(Br)c1 (stereo not drawn) [Compound 333, 4-Acetyl-1-(1H-benzoimidazol-5-yl)-5-(3-bromo-4-hydroxy-phenyl)-3-hydroxy-1,5-dihydro-pyrrol-2-one]
